# What was measured:
# [1] = tested on: HL-60; assay: Antiproliferative activity against human HL60 cells after 48 hrs; type: functional; conditions: for CC50: read-out: LC50 (the source's name)
# [2] = tested on: UO-31; assay: Antiproliferative activity against human UO31 cells after 48 hrs; type: functional
# [3] = tested on: LOX IMVI; assay: Antiproliferative activity against human LOX IMVI cells after 48 hrs; type: functional
# [4] = tested on: CCRF-CEM; assay: Antiproliferative activity against human CCRF-CEM cells after 48 hrs; type: functional
# [5] = tested on: HOP-92; assay: Antiproliferative activity against human HOP92 cells after 48 hrs; type: functional
# [6] = tested on: NCI; assay: Growth inhibition of human NCI DTP 60 cells; type: functional
# [7] = tested on: 786-0; assay: Antiproliferative activity against human 786-0 cells after 48 hrs; type: functional; conditions: for CC50: read-out: LC50 (the source's name)
# [8] = tested on: ACHN; assay: Antiproliferative activity against human ACHN cells after 48 hrs; type: functional
# [9] = tested on: CAKI-1; assay: Antiproliferative activity against human CAKI1 cells after 48 hrs; type: functional; conditions: CAKI-1, 48 h
# [10] = tested on: Plasmodium falciparum; assay: Antimalarial activity against Plasmodium falciparum W2; type: functional, organism-based
# [11] = tested on: Plasmodium falciparum; assay: Antimalarial activity against Plasmodium falciparum D6; type: functional, organism-based
# [12] = tested on: Plasmodium falciparum; assay: Antimalarial activity against Plasmodium falciparum TM91C235; type: functional, organism-based
# [13] = tested on: PC-3; assay: Antiproliferative activity against human PC3 cells after 48 hrs; type: functional; conditions: PC-3, 48 h
# [14] = tested on: DU-145; assay: Antiproliferative activity against human DU145 cells after 48 hrs; type: functional; conditions: DU-145, 48 h
# [15] = tested on: IGROV-1; assay: Antiproliferative activity against human IGROV1 cells after 48 hrs; type: functional; conditions: IGROV-1, 48 h
# [16] = read-out: LC50 (the source's name)
# [17] = Plasmodium falciparum, TM91C235
compound,measurement,setting,value
CC1CCC2(CC1)OOC1(CC[C@@]3(C)[C@H](CC[C@@H]4[C@@H]3C[C@H](O)[C@]3(C)[C@@H]([C@H](C)CCC(=O)NCCN(C)C)CC[C@@H]43)C1)OO2 (stereo in doubt; 16a),TGI,[1],1010 nM
same,GI50,"[1]; Homo sapiens, HL-60, 48 h",377 nM
same,CC50,[1],6090 nM
same,GI50,"[2]; Homo sapiens, UO-31, 48 h",206 nM
same,LC50,"[2]; Homo sapiens, UO-31, 48 h",864 nM
same,TGI,"[2]; Homo sapiens, UO-31, 48 h",421 nM
same,GI50,"[3]; Homo sapiens, LOX IMVI, 48 h",184 nM
same,LC50 (concentration killing 50% of cells),"[3]; Homo sapiens, LOX IMVI, 48 h",774 nM
same,TGI,"[3]; Homo sapiens, LOX IMVI, 48 h",378 nM
same,LC50 (concentration killing 50% of cells),[4],> 10000 nM
same,GI50,"[4]; Homo sapiens, CCRF-CEM, 48 h",257 nM
same,TGI,"[4]; Homo sapiens, CCRF-CEM, 48 h",539 nM
same,GI50,"[5]; Homo sapiens, HOP-92, 48 h",228 nM
same,LC50 (concentration killing 50% of cells),"[5]; Homo sapiens, HOP-92, 48 h",973 nM
same,TGI,"[5]; Homo sapiens, HOP-92, 48 h",471 nM
same,GI50,[6],15 nM
same,GI50,"[7]; Homo sapiens, 786-0, 48 h",626 nM
same,TGI,"[7]; Homo sapiens, 786-0, 48 h",2040 nM
same,CC50,"[7]; Homo sapiens, 786-0, 48 h",5430 nM
CC(=O)O[C@H]1C[C@H]2[C@@H](CC[C@@H]3CC4(CC[C@@]32C)OOC2(CCC(C)CC2)OO4)[C@@H]2CC[C@H]([C@H](C)CCC(=O)NCCN(C)C)[C@@]12C (stereo in doubt; 17),GI50,[8],439 nM
same,LC50 (concentration killing 50% of cells),[8],2300 nM
same,TGI,[8],1050 nM
same,LC50 (concentration killing 50% of cells),[3],56.4 nM
same,TGI,[3],5.18 nM
same,GI50,[9],602 nM
same,TGI,[9],1400 nM
same,CC50,[9]; [16],3250 nM
same,IC50,[10],136 nM
same,IC90,[10],155 nM
same,IC50,[11],104 nM
same,IC90,[11],148 nM
same,IC50,[12],136 nM
same,IC90,[12],153 nM
same,GI50,"[6]; Homo sapiens, NCI",< 5 nM
same,GI50,[7],81.3 nM
same,TGI,[7],149 nM
CC1CCC2(CC1)OOC1(CC[C@@]3(C)[C@H](CC[C@@H]4[C@@H]3C[C@H](O)[C@]3(C)[C@@H]([C@H](C)CCC(=O)NCCN(C)C)CC[C@@H]43)C1)OO2 (stereo in doubt; 17a),GI50,[1],264 nM
same,TGI,[1],477 nM
same,CC50,[1],863 nM
same,GI50,[13],367 nM
same,TGI,[13],1620 nM
same,CC50,[13]; [16],4450 nM
same,GI50,[2],165 nM
same,LC50,[2],613 nM
same,TGI,[2],318 nM
same,GI50,[3],180 nM
same,LC50 (concentration killing 50% of cells),[3],689 nM
same,TGI,[3],352 nM
same,GI50,[14],641 nM
same,LC50 (concentration killing 50% of cells),[14],4490 nM
same,TGI,[14],1910 nM
same,GI50,[4],186 nM
same,LC50 (concentration killing 50% of cells),[4],792 nM
same,TGI,[4],384 nM
same,GI50,[5],171 nM
same,LC50 (concentration killing 50% of cells),[5],794 nM
same,TGI,[5],368 nM
same,GI50,[6],130 nM
same,GI50,[15],160 nM
same,LC50 (concentration killing 50% of cells),[15],712 nM
same,TGI,[15],338 nM
same,GI50,[7],335 nM
same,TGI,[7],1050 nM
same,CC50,[7],3650 nM
CC(=O)O[C@H]1C[C@H]2[C@@H](CC[C@@H]3CC4(CC[C@@]32C)OOC2(CCC(C)CC2)OO4)[C@@H]2CC[C@H]([C@H](C)CCC(=O)Nc3ccccc3)[C@@]12C (stereo in doubt; 18),IC50,[10],23.1 nM
same,IC90,"[10]; Plasmodium falciparum, W2",38.9 nM
same,IC50,[11],23.3 nM
same,IC90,[11],33.7 nM
same,IC50,[12],32.9 nM
same,IC90,[12],42.7 nM
CC(=O)O[C@H]1C[C@H]2[C@@H](CC[C@@H]3CC4(CC[C@@]32C)OOC2(CCC(C)CC2)OO4)[C@@H]2CC[C@H]([C@H](C)CCC(=O)Nc3ccccc3)[C@@]12C (stereo in doubt; 19),IC50,[10],50.8 nM
same,IC90,[10],76.9 nM
same,GI50,"[5]; Homo sapiens, HOP-92, 48 h",< 5 nM
same,LC50 (concentration killing 50% of cells),"[5]; Homo sapiens, HOP-92, 48 h",15200 nM
same,TGI,"[5]; Homo sapiens, HOP-92, 48 h",130 nM
same,IC50,[11],50 nM
same,IC90,[11],77.5 nM
same,IC50,[12],66.8 nM
same,IC90,[12],109 nM
same,GI50,"[6]; Homo sapiens, NCI",< 5 nM
CC(=O)O[C@H]1C[C@H]2[C@@H]([C@H](OC(C)=O)C[C@@H]3CC4(CC[C@@]32C)OOC2(CCC(C)CC2)OO4)[C@@H]2CC[C@H]([C@H](C)CCC(=O)Nc3ccccc3)[C@@]12C (stereo in doubt; 20),LC50 (concentration killing 50% of cells),[3],1890 nM
same,GI50,"[3]; Homo sapiens, LOX IMVI, 48 h",161 nM
same,TGI,"[3]; Homo sapiens, LOX IMVI, 48 h",417 nM
same,IC50,[10],7.86 nM
same,IC90,[10],10.1 nM
same,IC50,[11],5.48 nM
same,IC90,[11],8.07 nM
same,IC50,[12],6.24 nM
same,IC90,[12],11 nM
same,GI50,[6],160 nM
C[C@@H]1CC[C@H]2[C@@H](C)C(=O)O[C@@H]3O[C@@]4(C)CC[C@@H]1[C@]32OO4 [ARTEMISININ],IC50,"[10]; Plasmodium falciparum, W2",6.7 nM
same,IC90,"[10]; Plasmodium falciparum, W2",11.5 nM
same,IC50,"[11]; Plasmodium falciparum, D6",9 nM
same,IC90,"[11]; Plasmodium falciparum, D6",12.8 nM
same,IC50,[12]; [17],13 nM
same,IC90,[12]; [17],17.4 nM
O[C@@H](c1cc(C(F)(F)F)nc2c(C(F)(F)F)cccc12)[C@H]1CCCCN1 [MEFLOQUINE],IC90,"[10]; Plasmodium falciparum, W2",8.41 nM
same,IC90,"[11]; Plasmodium falciparum, D6",21.6 nM
same,IC90,[12]; [17],65.7 nM

# Reference: ChEMBL document CHEMBL1148828, “Deoxycholic acid-derived tetraoxane antimalarials and antiproliferatives(1)” (J Med Chem, 2007)
